Test results published in patent US20240194290A1, “HIDDEN ANTIBIOTICS IN THE HUMAN PROTEOME” (THE TRUSTEES OF THE UNIVERSITY OF PENNSYLVANIA, priority 2021, published 2024).
Ends that are not written are not given here.

Tests used:
Assay in all cases: Outer membrane permeabilization (NPN uptake) assay
Settings in all cases: peptides at MIC
[1] = system: S. epidermidis; type: cell-based, Staphylococcus epidermidis
Protocol: (§1) FIG. 10. Membrane permeabilization and depolarization assays for several bacterial strains. […] FIG. 10B: Cytoplasmic membrane depolarization assays performed against P. aeruginosa PAO1 and the gut commensal B. fragilis ATCC25285.
(§2) Methods: Membrane depolarization assays. The cytoplasmic membrane depolarization activity of the peptides was determined by measurements of fluorescence of the membrane potential-sensitive dye, DiSC3(5). Briefly, A. baumannii ATCC19606, P. aeruginosa PAO1 and B. fragilis ATCC25285 were grown at 37° C. with agitation until they reached mid-log phase (OD600=0.5). […] Thereafter, the cells (100 μL) were incubated for 15 min with 20 nmol L^−1 of DiSC3(5) until a stable reduction of fluorescence was achieved, indicating the incorporation of the dye into the bacterial membrane. Membrane depolarization was then monitored by observing the change in the fluorescence emission intensity of the membrane potential-sensitive dye, DiSC3(5) (λex=622 nm, λem=670 nm), after the addition of peptides (100 μL solution at MIC values). […] The membrane permeability of the peptides was determined by using the N-phenyl-1-napthylamine (NPN) uptake assay. […] The background fluorescence was recorded at λex=350 nm and λem=420 nm. […]

[2] = system: B. fragilis ATCC25285; type: cell-based, Bacteroides fragilis
Protocol: as §1, §2

[3] = system: P. aeruginosa PAO1; type: cell-based, Pseudomonas aeruginosa
Protocol: as §1, §2

Measured: outer membrane permeabilization (NPN)

SKEMFPRSFIKLLRSKVSRFLRPYK [SCUB1-SKE25]
permeabilized: all assays above
